Results: PubChem BioAssay (NCI)
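1) Cells in 96-well plates. 2) Compound, 48 h, 5 concentrations. 3) Linear interpolation between surrounding doses. 4) Unreached endpoint = highest concentration. GI50: concentration for 50% inhibition of growth. TGI: concentration producing complete growth inhibition.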

How the values were obtained:
Assay in all cases: inhibition of tumour cell growth, NCI panel, 48 h
A549 NSCLC = test system: A549 NSCLC
RPMI-8226 leukemia = test system: RPMI-8226 leukemia
NCI-H23 lung = test system: NCI-H23 lung
OVCAR-4 ovarian = test system: OVCAR-4 ovarian
SW-620 colon = test system: SW-620 colon
HL-60(TB) leukemia = test system: HL-60(TB) leukemia
SN12C renal = test system: SN12C renal
NCI-H522 lung = test system: NCI-H522 lung
U251 CNS = test system: U251 CNS
CCRF-CEM leukemia = test system: CCRF-CEM leukemia

SMILES	GI50 (A549 NSCLC) [µM]	TGI (A549 NSCLC) [µM]	GI50 (RPMI-8226 leukemia) [µM]	TGI (RPMI-8226 leukemia) [µM]	GI50 (NCI-H23 lung) [µM]	TGI (NCI-H23 lung) [µM]	GI50 (OVCAR-4 ovarian) [µM]	TGI (OVCAR-4 ovarian) [µM]	GI50 (SW-620 colon) [µM]	TGI (SW-620 colon) [µM]	GI50 (HL-60(TB) leukemia) [µM]	TGI (HL-60(TB) leukemia) [µM]	GI50 (SN12C renal) [µM]	TGI (SN12C renal) [µM]	GI50 (NCI-H522 lung) [µM]	TGI (NCI-H522 lung) [µM]	GI50 (U251 CNS) [µM]	TGI (U251 CNS) [µM]	GI50 (CCRF-CEM leukemia) [µM]	TGI (CCRF-CEM leukemia) [µM]
CS(=O)(=O)Nc1ccc(-c2cc(-c3ccccc3)cc(C(N)=O)c2N)cc1	20.2	> 25	18.4	> 25	> 25	> 25	> 21.6	> 25	> 25	> 25	> 23.4	> 25	> 25	> 25	15.3	> 25	> 25	> 25	17.8	> 25
O=C1C(=O)c2c(nc3ccc(Br)cn23)-c2ccccc21	1.66	3.81	0.388	2.67	0.372	2.51	0.191	0.398	0.622	1.76	0.242	0.624	0.329	0.806	0.588	2.22	0.588	1.87	1.25	5.18
O=C1Nc2c(C(F)(F)F)cccc2[C@@]1(c1ccc(O)cc1)c1ccc(OC(F)(F)F)cc1	0.0186	0.0414	8.99	50.8	< 0.01	< 0.0135	< 0.01	< 0.01	14.1	28.6	5.59	23.8	< 0.01	< 0.011	< 0.01	< 0.0194	0.319	20.1	14.5	45.9
COc1ccc(C(SCC(N)C(=O)O)(c2ccccc2)c2ccccc2)cc1 (stereo not drawn)	0.594	> 100	0.0419	> 56.5	0.414	> 87.4	29.7	> 100	0.0745	> 100	0.136		0.199	> 68.4	0.104	> 100	0.0497	> 57	0.0992	> 100
NC1CCC(Nc2nc(NCc3ccc(-c4cccs4)nc3)c3ncn(C4CCCC4)c3n2)CC1 (stereo not drawn)	0.0237	2.04	0.0227	0.137	0.0383	0.319	0.0326	1.06	< 0.0152	2.03	0.0206	0.0644	0.0341	1.81	< 0.016	0.049	0.0327	0.434	0.0329	0.554
Clc1cccc(Cl)c1C1CSc2ccccc2N=C1c1ccccc1 (stereo not drawn)	12.2	28.1	2.46	7.1	13.1	31.4	3.11	16	2.34	5.64	8.2	38.7	3.35	12.3	3.52	14.5	2.11	4.54	3.44	34.8
CNCc1cc(OC)ccc1-c1ccc(OC)c(OC)c1OC		> 100		> 100		> 100		> 100		> 100		> 100		> 100		> 100		> 100		> 100
CC1C[C@H](C)CC(C(O)CC2CC(=O)N(Cc3ccccc3)C(=O)C2)C1O (stereo partly drawn)		> 100		> 100		> 100		> 100		> 100		> 100		> 100		> 100		> 100		> 100
CCCCCCCCN(CCCCCCCC)CCCCCCNc1cc(OC)cc2cccnc12	16.3	34.8	7.75	75.4	2.42	6.2	5.62	19.7	2.75	10.1	16.4	37.3	2.58	6.9	1.9	4.78	11.9	27	11.4	> 100
COc1cc(OC)c(/C=C\c2ccnc3ccccc23)c(OC)c1		18.6		13		22.1		16.5		20.8		0.963		16.3		18		15.2		5.75
Cc1cc(O)ccc1C1=NN(c2ccc(S(C)(=O)=O)cc2)C(=O)CC1	6.2	> 100	25.6	> 100	38.5	> 100	76.9	> 100	3.32	> 100	3.52	48.4	7.18	> 100	2.53	8.6	4.3	> 100	9.09	> 100
CCOC(=O)CSC(=O)NCCCl		> 100	> 100	> 100		> 100		> 100		> 100	22.3	> 100		> 100		> 100		> 100	7.22	> 100
O=C(c1ccccc1)c1ccc(Oc2ccc([N+](=O)[O-])cc2[N+](=O)[O-])cc1	19.7	59.7	2.56	7.72	4.33	54.9	4.18	87.4	4.36	23.7	2.19	5.89	3.25	19.1	2.51	6.53	3.25	13.3	2.89	> 100
NNC(=O)CNC(=O)c1ccc(Cl)cc1Cl		> 100		> 100		> 100		> 100		33.3		> 100		> 100		> 100		> 100		> 100
COc1ccc(C2CC(c3cc(C)ccc3O)=NC(N)=N2)cc1 (stereo not drawn)		> 100		> 100		> 100		> 100		> 100		> 100		> 100		> 100		> 100		> 100
NC(=O)c1ccc(NN=O)nc1		> 100	> 100	> 100		> 100		> 100		> 100		> 100		> 100		> 100		> 100		> 100
OCC(O)C(O)C(O)c1nn(-c2ccc(Cl)cc2)c2nc3cc(Cl)c(Cl)cc3nc12 (stereo not drawn)		> 100		> 100		85.1		> 100		> 100		> 100		> 100		> 100		> 100		> 100
